Laboratory results published in BigSolDB 2.1.

CN1COCN(Cc2cnc(Cl)s2)C1=N[N+](=O)[O-]
solubility (mole fraction)
Settings	278.15 K	283.15 K	288.15 K	293.15 K	298.15 K	303.15 K	308.15 K	313.15 K	318.15 K	323.15 K
in DMF	0.059	0.0658	0.0738	0.0816	0.0892	0.0985	0.11	0.123	0.137	0.152
in NMP	0.0818	0.0882	0.0952	0.102	0.111	0.119	0.128	0.138	0.149	0.161
in acetone	0.00632	0.00763	0.00888	0.0101	0.0121	0.014	0.0164	0.0194	0.023	0.0268
in dichloromethane	0.0126	0.0152	0.0174	0.0197	0.0222	0.0249	0.0277	0.0306	–	–
in ethyl acetate	0.00099	0.00125	0.00155	0.00183	0.0022	0.00257	0.00295	0.00339	0.00384	0.00429
in methyl acetate	0.00283	0.00331	0.00382	0.00446	0.00511	0.00597	0.00708	0.00825	0.0096	0.0114
